# Data reported in the supplement of paper PMC4862054.
# Assays:
# Conditions in all cases: incubation time: 72 h
# MDA-MB-231 = experiment: drug sensitivity score (DSS), CellTiter-Glo (DSS (AUC-based score)); higher = stronger drug effect (viability inhibition or cytotoxicity); extreme values may be limits of the assay
# Procedure, shortened: (§1)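 In 384-well plates, compound was laid out at 5 concentrations in 10-fold steps over a 10,000-fold range specific to each compound, and breast cancer cell lines were seeded on top in 20 µl suspension for a 72 h incubation. CellTox Green fluorescence and then CellTiter-Glo luminescence were read, and each plate was normalised to 0.1 % DMSO and a positive kill control. The drug sensitivity score was calculated from the area under the fitted dose-response curve.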
# CAL-85-1 [1] = experiment: as above
# Procedure, shortened: as §1
# HCC1937 = experiment: as above
# Procedure, shortened: as §1
# HCC1599 = experiment: as above
# Procedure, shortened: as §1
# CAL-148 = experiment: as above
# Procedure, shortened: as §1
# MCF-10A = experiment: as above
# Procedure, shortened: as §1
# Hs578T [2] = experiment: as above
# Procedure, shortened: as §1
# MDA-MB-468 [3] = experiment: as above
# Procedure, shortened: as §1
# MDA-MB-436 = experiment: as above
# Procedure, shortened: as §1
# MDA-MB-453 [4] = experiment: as above
# Procedure, shortened: as §1
# HCC1143 = experiment: as above
# Procedure, shortened: as §1
# CAL-120 [5] = experiment: as above
# Procedure, shortened: as §1
# BT-474 [6] = experiment: as above
# Procedure, shortened: as §1
# HDQ-P1 [7] = experiment: as above
# Procedure, shortened: as §1
# CAL-51 = experiment: as above
# Procedure, shortened: as §1
# MFM-223 = experiment: as above
# Procedure, shortened: as §1
# SK-BR-3 [8] = experiment: as above
# Procedure, shortened: as §1
# DU-4475 = experiment: as above
# Procedure, shortened: as §1
# BT-549 = experiment: as above
# Procedure, shortened: as §1
# CAL-85-1 [9] = experiment: normalised viability (% of control), CellTiter-Blue; higher = more viable cells (about 100 = DMSO control)
# Method: (§2)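 DSRT, CellTiter-Blue viability, 72 h incubation. Signal is normalised to DMSO and benzethonium chloride controls. Value is the normalised response at dose 3.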
# Hs578T [10] = experiment: as above
# Method: as §2
# MDA-MB-468 [11] = experiment: as above
# Method: as §2
# MDA-MB-453 [12] = experiment: as above
# Method: as §2
# CAL-120 [13] = experiment: as above
# Method: as §2
# BT-474 [14] = experiment: as above
# Method: as §2
# HDQ-P1 [15] = experiment: as above
# Method: as §2
# SK-BR-3 [16] = experiment: as above
# Method: as §2
SMILES,drug sensitivity score (MDA-MB-231),drug sensitivity score (CAL-85-1 [1]),drug sensitivity score (HCC1937),drug sensitivity score (HCC1599),drug sensitivity score (CAL-148),drug sensitivity score (MCF-10A),drug sensitivity score (Hs578T [2]),drug sensitivity score (MDA-MB-468 [3]),drug sensitivity score (MDA-MB-436),drug sensitivity score (MDA-MB-453 [4]),drug sensitivity score (HCC1143),drug sensitivity score (CAL-120 [5]),drug sensitivity score (BT-474 [6]),drug sensitivity score (HDQ-P1 [7]),drug sensitivity score (CAL-51),drug sensitivity score (MFM-223),drug sensitivity score (SK-BR-3 [8]),drug sensitivity score (DU-4475),drug sensitivity score (BT-549),normalised viability (CAL-85-1 [9]; 10 nM),normalised viability (Hs578T [10]; 100 nM),normalised viability (MDA-MB-468 [11]; 100 nM),normalised viability (MDA-MB-453 [12]; 10 nM),normalised viability (CAL-120 [13]; 100 nM),normalised viability (BT-474 [14]; 100 nM),normalised viability (HDQ-P1 [15]; 10 nM),normalised viability (SK-BR-3 [16]; 100 nM),normalised viability (CAL-85-1 [9]; 1 nM),normalised viability (Hs578T [10]; 10 nM),normalised viability (MDA-MB-468 [11]; 10 nM),normalised viability (MDA-MB-453 [12]; 1 nM),normalised viability (CAL-120 [13]; 10 nM),normalised viability (BT-474 [14]; 10 nM),normalised viability (HDQ-P1 [15]; 1 nM),normalised viability (SK-BR-3 [16]; 10 nM)
COC1=C2C[C@@H](C)C[C@H](OC)[C@H](O)[C@@H](C)/C=C(\C)[C@H](OC(N)=O)[C@@H](OC)/C=C\C=C(/C)C(=O)NC(=CC1=O)C2=O [Geldanamycin],5.32,6,5.93,1.53,1.87,3.98,3.07,4.27,8.77,3.9,2.36,2.21,4.34,4,5.12,11.3,5.98,6.88,5.68,105%,56.8%,33.8%,120%,25.1%,33.6%,109%,22.8%,–,–,–,–,–,–,–,–
Cn1cnc2c(F)c(Nc3ccc(Br)cc3F)c(C(=O)NOCCO)cc21 [MEK-162],0,0,0,0,0,13.3,0,0,0,0,0,0.188,2.42,5.43,0,0,0,12.5,0,–,–,–,–,–,–,–,–,98.1%,81.5%,98%,113%,92.2%,114%,114%,83.4%
CCOc1cc2ncc(C#N)c(Nc3ccc(OCc4ccccn4)c(Cl)c3)c2cc1NC(=O)/C=C/CN(C)C [Neratinib],0,7.08,0,0,2.61,11,0,4.31,0,8.47,0,1.19,0,6.58,1.09,0.624,24.8,0,0,–,–,–,–,–,–,–,–,96.5%,84.1%,107%,100%,84.9%,105%,114%,69.9%
COc1ccc(C2=N[C@@H](c3ccc(Cl)cc3)[C@@H](c3ccc(Cl)cc3)N2C(=O)N2CCNC(=O)C2)c(OC(C)C)c1 [Nutlin-3],0,0,0,0,0.553,0,0,0,0,0.52,0,0,0,0,10.8,0,0,0.984,0,99.1%,101%,95.8%,98.7%,84.8%,109%,113%,72.8%,–,–,–,–,–,–,–,–
COC1=CC(c2cc3ccccc3[nH]2)=N/C1=C\c1[nH]c(C)cc1C [Obatoclax],7.72,4.01,7.4,0,0,0,0,3.12,1.64,2.69,0,0,7.09,0,4.52,0,1.08,0.576,5.4,89.4%,73.4%,69%,80.6%,25.9%,70.7%,90.4%,43.3%,–,–,–,–,–,–,–,–
CC(=O)O[C@H]1C(=O)[C@@]2(C)[C@H]([C@H](OC(=O)c3ccccc3)[C@]3(O)C[C@H](OC(=O)[C@H](O)[C@@H](NC(=O)c4ccccc4)c4ccccc4)C(C)=C1C3(C)C)[C@]1(OC(C)=O)CO[C@@H]1C[C@@H]2O [Paclitaxel],17.3,22.8,10.5,14.2,18.3,19.8,23.7,23.5,21.1,9.73,20.9,13.2,17.2,11.5,18.9,16.5,33.6,10.4,24.3,–,–,–,–,–,–,–,–,103%,26%,52.1%,107%,36.9%,54.3%,60.8%,25.9%
